One assay addresses RORγ (Homo sapiens (Human), UniProt P51449). Put plainly: RORγ Reporter Assay (Gal4). The format is cell-based. As to conditions: HEK293 cells co-transfected with RORγ LBD-Gal4 and luciferase reporter; 24 h incubation; absolute IC50. As to the method:
The activity of the compounds was evaluated using a RORγ Reporter assay (also referred to as Gal4 assay). The Gal4 and the Th17 assays (another suitable assay) are both cell-based assays monitoring functional activity of the compound assayed. The HEK293 cell line is co-transfected transiently with two plasmids, one with the RORγ ligand-binding domain fused to galactose-responsive transcription factor (Gal4), and the other with the luciferase reporter gene and Gal binding sites (UAS). This construction allows to determine the RORγ activity in a cellular system through the measurement of luminescence. […] Media formulation consisted in DMEM/F-12 medium (Gibco) supplemented with 10% heat inactivated FBS (Sigma-Aldrich), non-essential aminoacids (Sigma-Aldrich), 2 mM Glutamax (Gibco) and 100 U/mL penicillin (Sigma-Aldrich). Dose-response curves with compounds were prepared in 100% DMSO and further diluted […] in culture medium. Compound solutions were added to the plate containing cells (final DMSO concentration of 0.1%) and incubated for 24 h at 37° C. and 5% CO2. Luciferase detection reagent was added to each well, and relative light units (RLUs) were quantified from each assay well using a plate reading luminometer. Values of average RLU±S.D. were computed for all treatment sets, followed by the calculations of percent-reduction of RORγ activity in response to respective test compound. The following formula was used: activity=100*[1−[x test compound/average vehicle where the theoretical minimum reduction (0% reduction).
A general note: A reporter such as luciferase makes a cellular process visible.
Chain of RORγ (P51449 269-508): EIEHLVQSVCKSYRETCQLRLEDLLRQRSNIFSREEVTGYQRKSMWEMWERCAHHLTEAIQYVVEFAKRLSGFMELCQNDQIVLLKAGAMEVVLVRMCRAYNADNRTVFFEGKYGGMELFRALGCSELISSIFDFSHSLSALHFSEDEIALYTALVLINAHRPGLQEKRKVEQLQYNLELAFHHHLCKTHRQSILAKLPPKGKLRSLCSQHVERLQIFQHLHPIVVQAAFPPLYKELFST
As a reminder, the IC50 is the concentration that inhibits the measured activity by half. As for `CCN(CC1(F)CCC(C(F)(F)F)CC1)c1ncnc(NC[C@@H]2CCN(CC(N)=O)C[C@H]2O)c1F` (single isomer, unassigned) [Example A6-7-1], the IC50 stood at 43 nM. In other words, the double-digit nanomolar range.
As to `CCN(CC1(F)CCC(C(F)(F)F)CC1)c1ncnc(NC[C@@H]2CCN(CC(N)=O)C[C@H]2O)c1F` (single isomer, unassigned) [Example A6-7-2], the IC50 turned out to be 69 nM.
On the same count and under the same terms, then `CCN(C[C@H]1CC[C@@]2(CC1)CC2(F)F)c1ncnc(NC[C@@H]2CCN(CC(N)=O)C[C@H]2O)c1F` (single isomer, unassigned) [Example A6-1-2-1], with 49 nM; and `CCN(C[C@H]1CC[C@H](C(F)(F)F)CC1)c1ncnc2c1ccn2C[C@]1(O)CCN(CC(N)=O)C[C@H]1O` (single isomer, unassigned) [BD-5-1-1, 2-((3R*,4R*)-4-((4-(ethyl(((1r,4R)-4-(trifluoromethyl)cyclohexyl)methyl)amino)-7H-pyrrolo[2,3-d]pyrimidin-7-yl)methyl)-3,4-dihydroxypiperidin-1-yl)acetamide], with 3.3 nM; and `CCN(C[C@H]1CC[C@H](C(F)(F)F)CC1)c1ncnc2c1ccn2C[C@]1(O)CCN(CC(N)=O)C[C@H]1O` (single isomer, unassigned) [BD-5-1-2, 2-((3R*,4R*)-4-((4-(ethyl(((1r,4R)-4-(trifluoromethyl)cyclohexyl)methyl)amino)-7H-pyrrolo[2,3-d]pyrimidin-7-yl)methyl)-3,4-dihydroxypiperidin-1-yl)acetamide], with 4.3 nM.
Still for that read-out and setting: for `CCN(C[C@H]1CC[C@]2(CC1)CC2(F)F)c1ncnc(NC[C@@H]2CCN(CC(N)=O)C[C@H]2O)c1F` (relative stereo) [Example A6-1-1-1, rel-2-((3R,4R)-4-(((6-(((1,1-Difluorospiro[2.5]octan-6-yl)methyl)(ethyl)amino)-5-fluoropyrimidin-4-yl)amino)methyl)-3-hydroxypiperidin-1-yl)acetamide] the value was 35 nM; for `CCN(C[C@H]1CC[C@H](C(F)(F)F)CC1)c1ncnc(NC[C@@]2(O)CCN(CC(N)=O)C[C@@H]2O)c1F` (single isomer, unassigned) [AD-6-1, 2-((3R*,4R*)-4-(((6-(ethyl(((1r,4R)-4-(trifluoromethyl)cyclohexyl)methyl)amino)-5-fluoropyrimidin-4-yl)amino)methyl)-3,4-dihydroxypiperidin-1-yl)acetamide], 1.2 nM; for `CCN(CC1CCC2(CC1)CC2(F)F)c1ncnc(NC[C@H]2CCN(CC(N)=O)C[C@@H]2O)c1F` (relative stereo) [Example A6-1-1-2, rel-2-((3R,4R)-4-(((6-(((1,1-Difluorospiro[2.5]octan-6-yl)methyl)(ethyl)amino)-5-fluoropyrimidin-4-yl)amino)methyl)-3-hydroxypiperidin-1-yl)acetamide], 44 nM.
The same measure, in the same setting: then `NC(=O)CN1CC[C@@H](CNc2ncnc(N(C[C@H]3CC[C@H](C(F)(F)F)CC3)C3CCC3)c2F)[C@H](O)C1` (racemic) [Example A6-5, 2-((3RS,4RS)-4-(((6-(cyclobutyl(((1r,4R)-4-(trifluoromethyl)cyclohexyl)methyl)amino)-5-fluoropyrimidin-4-yl)amino)methyl)-3-hydroxypiperidin-1-yl)acetamide], with 17 nM; and `CCN(CC1CCC2(CC1)COC2)c1ncnc(NC[C@@H]2CCN(CC(N)=O)C[C@H]2O)c1F` (single isomer, unassigned) [Example A6-6-1], with 690 nM.
In turn, `CCN(CC1CCC2(CC1)COC2)c1ncnc(NC[C@@H]2CCN(CC(N)=O)C[C@H]2O)c1F` (single isomer, unassigned) [Example A6-6-2] displayed a half-maximal inhibitory concentration (IC50) of 980 nM.
On the same count and under the same terms, for `CCN(C[C@H]1CC[C@H](C(F)(F)F)CC1)c1ncnc(NC[C@@]2(O)CCN(CC(N)=O)C[C@@H]2O)c1F` (single isomer, unassigned) [AD-6-2, 2-((3R*,4R*)-4-(((6-(ethyl(((1r,4R)-4-(trifluoromethyl)cyclohexyl)methyl)amino)-5-fluoropyrimidin-4-yl)amino)methyl)-3,4-dihydroxypiperidin-1-yl)acetamide] the value was 15 nM.

The next assay relates to plasma IL-17A. In words: In vivo IL-17A induction in anti-CD3 model in mice. As to conditions: male C57BL/6JRj mice, anti-CD3e induced plasma IL-17A, oral gavage twice daily day 0 to day 3, 3 mg/kg. As to the method:
Compounds disclosed herein have also been evaluated in a mouse in vivo pharmacodynamic model (anti-CD3-induced plasma IL-17A).
Male C57BL/6JRj mice (7 week old) were purchased from Janvier Labs and housed at the animal facilities of Almirall throughout the study. Animals were allowed to condition for 5 days in their new environment at 22° C.±2° C., 55%±10% relative humidity and 12 h:12 h light:dark cycles. Animals were housed in polycarbonate cages, with free access to water and non-purified stock diet (2014 Teklad Global 14% Protein Rodent Maintenance Diet, Envigo) during the full course of the studies. […]
Mice were injected intraperitoneally with 7.5 μg of anti-CD3e (Clone 145-2C11 from Pharmingen BD) at 0 h (day 0) and 48 h (day 3) time-points. […] Plasma levels of IL-17A were measured by ELISA (R&D Systems) according to the manufacturer's instruction. Results were calculated as the percentage of reduction of plasma IL-17A versus the difference between non-induced and anti-CD3e induced groups through the formula: inhibition=100*[1−[(x−mean non-induced)/(mean control vehicle−mean non-induced)]]. The IL-17A inhibition for each treatment can be expressed as the mean for each treatment group±S.E.M. Statistical analysis of data were conducted with one-way ANOVA followed by Dunnett's multiple comparisons test when appropriate. […]
As to `CCN(C[C@H]1CC[C@H](C(F)(F)F)CC1)c1ncnc(NC[C@@]2(O)CCN(CC(N)=O)C[C@@H]2O)c1F` (single isomer, unassigned) [AD-6-1, 2-((3R*,4R*)-4-(((6-(ethyl(((1r,4R)-4-(trifluoromethyl)cyclohexyl)methyl)amino)-5-fluoropyrimidin-4-yl)amino)methyl)-3,4-dihydroxypiperidin-1-yl)acetamide], the “Inhibition of IL-17A (%) at 3 mg/kg” value came to 95%.

The values are drawn from patent US11613532B2, “Compounds active towards nuclear receptors” (NUEVOLUTION A/S, priority 2020, dated 2023).
